Where only a bound is given, the exact number is not on record here.

The assay relates to INS-1E rat beta cells, no cytokines, CellTiter-Glo ATP, 48 h. The assay is described as follows: cytokine-free beta-cell viability effect – INS-1E rat cells, ATP luminescence, cherry pick, counter-screen for beta-cell apoptosis protection project, dose response (AID 463229). (A counterscreen serves to expose hits that act by an unwanted route or on another target.)
Regarding `CCN1CCN(c2c(Cl)cccc2NC(=O)c2ccc([N+](=O)[O-])o2)CC1`, the concentration at half-maximal activity (AC50) is 7.11 µM.
On to `C=CCn1cc(/C=C/c2cc[n+](C)cc2)c2ccccc21`, for which the AC50 is 4.63 µM.
Then `O=C(NCc1cccnc1)/C(=C/c1ccc(-c2ccc(Cl)cc2)o1)S(=O)(=O)c1ccccc1`, with 6.93 µM.
Regarding `COc1ccc(/C=C/c2cc(-c3ccc(C)cc3)o[n+]2C)cc1`, the concentration at half-maximal activity (AC50) is 0.91 µM.
In the case of `Cc1cc(C(=O)N/N=C/c2cc(Br)ccc2OC(=O)c2ccccc2)n[nH]1`, the AC50 is 7.44 µM.
Then `COc1ccc(CCNc2ncnc3sc(C)cc23)cc1OC`, with 1.33 µM; and `Cc1ccc(C)c(S(=O)(=O)N2CCN(c3ncnc4sccc34)CC2)c1`, with 4.53 µM.
As for `COC(=O)[C@H](CC(C)C)N(Cc1ccccc1)S(=O)(=O)N(Cc1ccc(OC)cc1)[C@@H](CC(C)C)C(=O)OC`, the AC50 was 5.08 µM.
Consider `Cc1cccc(N=Nc2ccc(O)c3ncccc23)c1`, for which the AC50 is 5 µM.
In the case of `Cc1[nH]n(-c2ccccc2)c(=O)c1/C=N/Nc1nncc(-c2ccccc2)n1`, the AC50 was 1.22 µM.
Under `Cc1ccccc1-c1cc(C(=O)Nc2sc(C)c(C)c2C(N)=O)c2ccccc2n1` stands 6.8 µM; under `Cc1nc2ccccc2cc1OCc1ccc(F)cc1`, 6.6 µM.
Then `Cc1cc(C)c(S(=O)(=O)/N=C2/C=C(Sc3ncn[nH]3)C(=O)c3ccccc32)cc1C`, with 7.58 µM.
As for `O=C(Nc1ccc(OCC(=O)N2CCC(Cc3ccccc3)CC2)cc1)c1ccco1`, the AC50 is 7 µM.
Consider `Cc1ccc2[nH]c3c(N4CCc5ccccc5C4)ncnc3c2c1`, for which the AC50 was 2.58 µM.
`CS(=O)(=O)N(CC(=O)Nc1ccc(CC#N)cc1)c1ccc(C23CC4CC(CC(C4)C2)C3)cc1`: the AC50 was 7.41 µM.
Take `c1ccc(CNc2c3ccccc3nc3ccccc23)cc1`: the AC50 was 11.5 µM.
On to `O=C1C(=O)c2ccccc2-c2ccccc21`, for which the AC50 was 1.01 µM.
As to `CCN1CCN(c2ccc(S(=O)(=O)N3CCCCC3)cc2NC(=O)c2ccc([N+](=O)[O-])o2)CC1`, the AC50 is 8.1 µM.
For `Cc1c(N/N=C(\C#N)C(=O)c2ccc(Cl)cc2)c(=O)n(-c2ccccc2)n1C`, the AC50 was 5.35 µM.
As for `C#CCOCCOCCOCCNc1nc(N2CCN(C(=O)CCCCCCCCCCNC(=O)[C@@H](CCSC)n3cc(CCO)nn3)CC2)nc(N2CCN(C(=O)CCCCCCCCCCNC(=O)[C@H]([C@@H](C)CC)n3cc(CCCCCN)nn3)CC2)n1`, the AC50 is 12.9 µM.
Regarding `FC(F)Sc1ccc(N=C2NN=C(c3ccc4c(c3)OCCO4)CS2)cc1`, the AC50 was 2.9 µM.
Under `Nc1nc(N)c2cc(Sc3ccc4ccccc4c3)ccc2n1` stands 2.09 µM; under `COc1cc(CSc2nnnn2-c2ccc(C)cc2)cc(OC)c1OC`, 4.46 µM.
Take `Cc1cc(C)nc(N/N=C2/CCCC/C2=C\c2ccccc2)n1`: the AC50 was 3.72 µM.
For `O=C(NNC(=S)Nc1ccc(Cl)c(Cl)c1)c1ccccn1`, the AC50 was 4.35 µM.
Consider `Cn1ncc2c(N3CCN(c4ccc(Cl)c(Cl)c4)CC3)ncnc21`, for which the AC50 was 3.37 µM.
For `FC(F)(F)c1nnc2c(Sc3ccccc3)nc3ccc(Cl)cc3n12`, the AC50 is 11.1 µM.
As to `Oc1ccc(Nc2nc(-c3ccc4ccccc4c3)cs2)cc1`, the AC50 is 7.98 µM.
As for `CCN(CC)c1ccc(/C=N/NC(=O)Cc2cccs2)c(O)c1`, the AC50 was 4.5 µM.
Then `Cc1cc(N/N=C/c2cccc(Cl)c2)nc(-n2nc(C)cc2C)n1`, with 16.4 µM; and `Cc1cc(/C=N/n2cnnc2)c(C)n1-c1ccc(OCc2ccc(Cl)cc2)cc1`, with 1.26 µM.
Consider `CCC(=O)NC(c1ccc(C)cc1)c1cc([N+](=O)[O-])c2cccnc2c1O` (stereo not drawn), for which the AC50 was 13.8 µM.
In the case of `COc1ccc2c(c1)N(C)/C(=C/c1cccc[n+]1C)S2`, the AC50 was 1.49 µM.
For the compound `COc1ccc(C(CCNCc2ccc(OC(C)C)cc2)c2ccccc2OC)cc1` (stereo not drawn), the concentration at half-maximal activity (AC50) was 7.84 µM.
Regarding `CCCSc1nsc(NC(=O)Nc2ccc(F)cc2F)n1`, the AC50 is 6.99 µM.
Regarding `Clc1ccc(OCCN2CCN(c3ncnc4sccc34)CC2)cc1`, the AC50 is 0.726 µM.
`O=[N+]([O-])c1cc(Cl)cc(/C=N\Nc2ccccn2)c1O`: the AC50 is 2.55 µM.
Consider `O=C(CN1CCCc2ccccc21)N/N=C/c1ccccc1O`, for which the AC50 is 15 µM.
Consider `CCc1ccc(OC)c(S(=O)(=O)Nc2ccc(Cc3ccncc3)cc2)c1`, for which the AC50 was 6.36 µM.
`CCCCn1c(=N)n(CC(=O)c2ccc(Br)s2)c2ccccc21`: the AC50 is 13.1 µM.
Consider `NC(N)=NC(N)=Nc1ccc(SC(F)(F)F)cc1`, for which the AC50 is 2.76 µM.
Regarding `CCc1cc(C(=O)NC2CCCc3c2cnn3-c2cccc(C)c2C)n(C)n1` (stereo not drawn), the AC50 was < 0.195 µM.
Consider `FC(F)(F)c1cccc(-c2nc3nc(Cl)c(Cl)nc3[nH]2)c1`, for which the AC50 is 3.13 µM.
Under `Oc1ccccc1/C=N/Nc1ncc(Br)cn1` stands 19.7 µM; under `N#C/C(=N\Nc1cccc([N+](=O)[O-])c1)C(=O)c1ccc(Br)cc1`, 7.29 µM.
Take `COc1ccc2nc(N=Nc3ccc(O)c4ccccc34)sc2c1`: the AC50 was 7.16 µM.
With `CCCCC(=O)NC(c1ccco1)c1cc(Cl)c2cccnc2c1O` (stereo not drawn), the AC50 is 12.4 µM.
Turning to `O=C(C(Cl)Cl)N1c2ccccc2OCC1c1ccccc1` (stereo not drawn), the AC50 is 8.31 µM.
Under `CCOc1ccc(CN2CCN(Cc3c[nH]c4ccccc34)CC2)cc1` stands 7.75 µM; under `CC1CN(CC(O)COC(c2ccc(Cl)cc2)c2ccc(Cl)cc2)CC(C)O1` (stereo not drawn), 14.2 µM; under `C=C(C)C(=O)N1CC2(CC(c3cccc(NC(=O)COc4ccc(Cl)cc4)c3)=NO2)C[C@@H]1C(N)=O` (stereo partly drawn), 12.8 µM.
Then `O=C(Nc1ccc2nc3n(c(=O)c2c1)CCCCC3)c1c(F)ccc([N+](=O)[O-])c1F`, with 6.65 µM; and `O=C(N/N=C/c1cc(Br)cc(Br)c1O)c1ccncc1`, with 7.34 µM.
Under `C#Cc1ccc([C@@H]2C=C(C(=O)N3CCN(Cc4ccccc4)CC3)O[C@H](OCCCCO)C2)cc1` stands 2.13 µM.
Take `O=C(N/N=C/c1cc(Br)c(Br)s1)c1ccncc1`: the AC50 was 9.72 µM.
`O=[N+]([O-])c1ccccc1-c1cc(-c2ccccc2)cc(-c2ccccc2)[n+]1Cc1ccccc1Cl`: the AC50 was 2.23 µM.
Consider `Cc1ccc2[nH]c(=O)c(C3C(C#N)=C(N)Oc4c3ccc3cccnc43)cc2c1` (stereo not drawn), for which the AC50 was 4.74 µM.
On to `CCCCC(=O)NC(c1ccc(N(C)C)cc1)c1ccc2cccnc2c1O` (stereo not drawn), for which the AC50 is 1.6 µM.
In the case of `CCN1C/C(=C/c2ccc(OC)c(O)c2)C(=O)/C(=C/c2ccc(OC)c(O)c2)C1`, the AC50 is 4.92 µM.
With `CCN1CCN(c2ccc(S(=O)(=O)N3CCCCC3)cc2NC(=O)c2ccc([N+](=O)[O-])s2)CC1`, the AC50 was 6.94 µM.
`CSc1ccccc1OCc1cc(C(=O)N2CCc3c(Cl)cccc3C2)no1`: the AC50 is 6.99 µM.
With `Cc1cccc(NC(=O)c2ccc([N+](=O)[O-])s2)c1C`, the AC50 is 26.1 µM.
Take `COc1cc(NC(=O)c2ccccc2NS(=O)(=O)c2ccc(Cl)s2)cc(OC)c1`: the AC50 was 6.97 µM.
As for `Cc1ccc(-n2cccc2C(=S)N=P(N(C)C)(N(C)C)N(C)C)cc1`, the AC50 was 7.11 µM.
Then `O=C(Nc1ccc(Cl)c(Cl)c1)N1CCSC1c1ccco1` (stereo not drawn), with 14.2 µM; and `Nc1c(C(=O)Nc2ccc3c(c2)OCCO3)nnn1Cc1ccccc1Cl`, with 5.53 µM.
Take `Cc1ccc(S(=O)(=O)c2ccc([N+](=O)[O-])cn2)cc1`: the AC50 is 13.5 µM.

As usually defined, the AC50 is the concentration giving half of the maximal activity seen.

These data come from PubChem BioAssay AID463229 (Broad Institute, 2010).
